Results on six compounds are retold here after ChEMBL document CHEMBL1201862, “PubChem BioAssay data set” (2004).

A short description of experiment [1]: NIH-3T3 fibroblast cytotoxicity, dose response, cytotoxicity control, cell-based, fluorescence, Alamar Blue, secondary assay (AID 2327).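 Also: NIH-3T3 mouse fibroblasts cultured with fluconazole at 8 µg/mL.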 It counts as functional. On the technique in general: Alamar Blue is a resazurin reagent that responds to reducing activity.
Experiment [2] is described as follows: C. albicans growth with fluconazole, confirmation, fluorescence, retest (AID 2467). It counts as functional, cell-based.
In experiment [3] the target is T1, Serine/threonine-protein phosphatase (Candida dubliniensis (strain CD36 / CBS 7987 / NCPF 3949 / NRRLY-17841) (Yeast), UniProt B9W6M3).
T1 sequence (B9W6M3 whole entry): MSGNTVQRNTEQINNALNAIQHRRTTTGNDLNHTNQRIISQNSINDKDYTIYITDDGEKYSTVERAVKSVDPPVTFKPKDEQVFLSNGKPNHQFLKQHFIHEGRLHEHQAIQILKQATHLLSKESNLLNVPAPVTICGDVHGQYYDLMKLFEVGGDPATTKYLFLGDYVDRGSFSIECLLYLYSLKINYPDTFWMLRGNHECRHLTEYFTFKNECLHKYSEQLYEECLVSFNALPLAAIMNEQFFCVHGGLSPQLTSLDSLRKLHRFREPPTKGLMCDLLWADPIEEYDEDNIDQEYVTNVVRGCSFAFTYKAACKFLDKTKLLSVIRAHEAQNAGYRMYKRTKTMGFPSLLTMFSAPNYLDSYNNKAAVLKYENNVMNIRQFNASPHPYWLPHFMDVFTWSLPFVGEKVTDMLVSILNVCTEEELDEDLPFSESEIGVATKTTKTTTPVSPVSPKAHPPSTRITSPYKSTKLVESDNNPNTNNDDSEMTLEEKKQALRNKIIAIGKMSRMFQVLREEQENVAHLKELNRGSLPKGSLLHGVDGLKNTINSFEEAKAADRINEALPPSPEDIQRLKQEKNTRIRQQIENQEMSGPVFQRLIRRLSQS
Kind of experiment: calcineurin pathway inhibitors in yeast reporter, dose response, S. cerevisiae, CDRE-lacZ, luminescence, secondary (AID 2388).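 Also: yeast reporter cells carrying a calcineurin-responsive lacZ construct stimulated with calcium chloride; luminescent beta-galactosidase reporter signal in whole cells rather than isolated phosphatase activity; potency for inhibition where a drop in reporter signal means calcineurin blockade.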 It counts as functional, cell-based.

In experiment [4] the target is ATP-dependent molecular chaperone HSP82 (Candida albicans (strain WO-1) (Yeast), UniProt C4YTQ8). Kind of experiment: loss of DOC-induced GRE-beta-galactosidase reporter signal, dose response, Hsp90 inhibitor project, S. cerevisiae, luminescence (AID 2400).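 Also: beta-galactosidase luminescence from glucocorticoid response element reporter as proxy for Hsp90 function; inhibitor potency where signal loss means Hsp90 inhibition.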 It counts as functional, cell-based.
ATP-dependent molecular chaperone HSP82, sequence (C4YTQ8 whole entry): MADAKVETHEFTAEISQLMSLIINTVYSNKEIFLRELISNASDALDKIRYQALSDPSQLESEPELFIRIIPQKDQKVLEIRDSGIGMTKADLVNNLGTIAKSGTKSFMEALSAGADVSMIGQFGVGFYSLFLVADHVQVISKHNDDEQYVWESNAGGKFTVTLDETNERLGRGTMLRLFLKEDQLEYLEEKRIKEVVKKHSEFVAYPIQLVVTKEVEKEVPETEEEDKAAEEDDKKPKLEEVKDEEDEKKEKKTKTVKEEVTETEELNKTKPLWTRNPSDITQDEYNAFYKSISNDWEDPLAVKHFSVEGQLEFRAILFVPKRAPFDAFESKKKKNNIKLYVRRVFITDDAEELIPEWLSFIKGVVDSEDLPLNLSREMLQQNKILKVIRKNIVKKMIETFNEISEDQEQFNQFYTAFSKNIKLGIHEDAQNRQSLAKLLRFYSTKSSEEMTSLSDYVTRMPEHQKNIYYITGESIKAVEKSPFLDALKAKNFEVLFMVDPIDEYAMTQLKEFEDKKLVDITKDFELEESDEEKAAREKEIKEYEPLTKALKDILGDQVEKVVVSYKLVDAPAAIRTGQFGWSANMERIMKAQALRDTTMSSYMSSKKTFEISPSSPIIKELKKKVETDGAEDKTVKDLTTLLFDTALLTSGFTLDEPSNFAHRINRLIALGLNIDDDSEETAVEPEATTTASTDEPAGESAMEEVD
The subject of experiment [5] is Streptococcus sp. 'group A'. Put plainly: growth inhibition of control SK(-) GAS strain, dose response, counter-screen for streptokinase expression inhibitor project, luminescence, kanamycin, BacTiterGlo, confirmation (AID 1900). Type of experiment: functional, organism-based. On the technique in general: Counterscreens check selectivity or assay interference.
The target in another experiment is Beta-galactosidase (Escherichia coli, UniProt Q8VNN2). Kind of experiment: PubChem AID 485352. Type of experiment: functional.
Beta-galactosidase, sequence (Q8VNN2 whole entry): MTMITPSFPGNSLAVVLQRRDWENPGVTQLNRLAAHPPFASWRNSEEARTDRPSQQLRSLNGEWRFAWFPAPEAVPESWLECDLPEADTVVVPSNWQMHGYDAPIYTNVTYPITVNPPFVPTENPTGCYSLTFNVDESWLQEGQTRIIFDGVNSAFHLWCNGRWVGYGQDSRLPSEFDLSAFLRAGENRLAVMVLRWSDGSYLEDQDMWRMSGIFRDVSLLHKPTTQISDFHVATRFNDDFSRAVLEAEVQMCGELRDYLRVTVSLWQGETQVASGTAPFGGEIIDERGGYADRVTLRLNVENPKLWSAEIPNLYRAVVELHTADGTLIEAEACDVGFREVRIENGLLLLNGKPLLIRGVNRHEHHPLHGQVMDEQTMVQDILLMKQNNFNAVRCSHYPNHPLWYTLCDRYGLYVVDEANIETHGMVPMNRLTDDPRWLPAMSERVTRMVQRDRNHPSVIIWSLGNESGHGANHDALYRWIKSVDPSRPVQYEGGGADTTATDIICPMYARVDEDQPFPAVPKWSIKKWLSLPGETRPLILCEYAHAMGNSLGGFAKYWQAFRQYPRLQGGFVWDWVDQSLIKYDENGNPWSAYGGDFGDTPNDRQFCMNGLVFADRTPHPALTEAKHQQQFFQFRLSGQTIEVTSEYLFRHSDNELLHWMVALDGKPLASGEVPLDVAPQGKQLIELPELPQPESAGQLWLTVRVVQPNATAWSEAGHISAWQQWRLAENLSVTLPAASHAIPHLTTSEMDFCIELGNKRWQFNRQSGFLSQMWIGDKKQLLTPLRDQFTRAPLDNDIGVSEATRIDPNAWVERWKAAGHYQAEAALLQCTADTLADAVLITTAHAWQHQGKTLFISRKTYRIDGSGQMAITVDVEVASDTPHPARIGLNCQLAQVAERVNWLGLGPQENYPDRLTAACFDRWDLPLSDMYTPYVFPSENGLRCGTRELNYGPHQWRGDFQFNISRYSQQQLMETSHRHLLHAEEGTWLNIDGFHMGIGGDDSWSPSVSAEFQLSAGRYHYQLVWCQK
For the next experiment, the target named is T2, Streptokinase A (Streptococcus pyogenes serotype M1, UniProt P10520).
T2 sequence (P10520 whole entry): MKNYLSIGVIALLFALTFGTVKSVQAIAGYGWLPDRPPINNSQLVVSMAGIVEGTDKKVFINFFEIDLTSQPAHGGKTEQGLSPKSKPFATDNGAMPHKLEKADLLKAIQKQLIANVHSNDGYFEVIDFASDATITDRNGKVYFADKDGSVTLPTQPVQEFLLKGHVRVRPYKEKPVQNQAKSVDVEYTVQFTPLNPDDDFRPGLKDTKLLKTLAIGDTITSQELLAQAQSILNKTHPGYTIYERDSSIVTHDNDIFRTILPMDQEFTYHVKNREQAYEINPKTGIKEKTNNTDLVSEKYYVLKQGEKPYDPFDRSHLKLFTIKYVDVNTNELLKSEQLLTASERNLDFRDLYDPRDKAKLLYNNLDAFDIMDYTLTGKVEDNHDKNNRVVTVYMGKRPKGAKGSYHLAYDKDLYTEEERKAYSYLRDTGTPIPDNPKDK
Kind of experiment: S. pyogenes streptokinase expression inhibitors, potency, dose response, plasminogen activation absorbance, OD405 (AID 1914).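 Also: secreted streptokinase activity via plasminogen activation per viability signal from cell pellet.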 It counts as functional, Streptococcus pyogenes M1 GAS.

The nature of experiment [6]: inhibitors of intracellular T. cruzi replication, confirmation, NIH3T3 host cells, beta-gal luminescence (AID 2044).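 Also: intracellular parasites grown in NIH/3T3 mouse fibroblasts as host cells; luminescent beta-galactosidase reporter signal from transgenic T. cruzi replicating inside host cells; inhibitors lower the luminescence signal.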 Type of experiment: functional, cell-based.
Experiment [7] has as its target T3, Type-1 angiotensin II receptor (Homo sapiens, UniProt P30556).
T3 sequence (P30556 whole entry): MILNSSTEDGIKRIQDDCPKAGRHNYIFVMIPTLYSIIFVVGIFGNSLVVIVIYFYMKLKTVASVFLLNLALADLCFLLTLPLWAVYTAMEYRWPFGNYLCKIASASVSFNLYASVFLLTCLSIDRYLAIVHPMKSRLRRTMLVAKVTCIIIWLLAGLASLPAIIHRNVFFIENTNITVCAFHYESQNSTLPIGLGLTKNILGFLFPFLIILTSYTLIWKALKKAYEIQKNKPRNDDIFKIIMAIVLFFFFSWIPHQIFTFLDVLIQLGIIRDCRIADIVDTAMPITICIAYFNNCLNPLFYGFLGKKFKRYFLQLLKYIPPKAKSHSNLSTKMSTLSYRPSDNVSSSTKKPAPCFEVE
Kind of experiment: AT1 receptor antagonists, dose response, selectivity assay for APJ receptor antagonist project, cell-based, uHTS hits (AID 463214).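 Also: antagonist potency against angiotensin II stimulated AT1 response.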 It counts as functional.

Experiment [8] in a line: cytotoxicity toward NIH3T3 fibroblasts, dose response, counter-screen, cell-based, ATP luminescence, mouse fibroblasts (AID 2010).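 Also: cells exposed to compound for about 90 hours before reading.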 Type of experiment: functional.
A further experiment has as its system Streptococcus. Put plainly: Group A Streptococcus viability loss, dose response, counter-screen for streptokinase expression inhibitor project, luminescence, BacTiterGlo (AID 1915).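 Also: potency for reduction of bacterial viability or growth.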 It counts as functional, organism-based.
For experiment [9], the target named is T4, Heat shock factor protein 1 (Mus musculus, UniProt P38532).
T4 sequence (P38532 whole entry): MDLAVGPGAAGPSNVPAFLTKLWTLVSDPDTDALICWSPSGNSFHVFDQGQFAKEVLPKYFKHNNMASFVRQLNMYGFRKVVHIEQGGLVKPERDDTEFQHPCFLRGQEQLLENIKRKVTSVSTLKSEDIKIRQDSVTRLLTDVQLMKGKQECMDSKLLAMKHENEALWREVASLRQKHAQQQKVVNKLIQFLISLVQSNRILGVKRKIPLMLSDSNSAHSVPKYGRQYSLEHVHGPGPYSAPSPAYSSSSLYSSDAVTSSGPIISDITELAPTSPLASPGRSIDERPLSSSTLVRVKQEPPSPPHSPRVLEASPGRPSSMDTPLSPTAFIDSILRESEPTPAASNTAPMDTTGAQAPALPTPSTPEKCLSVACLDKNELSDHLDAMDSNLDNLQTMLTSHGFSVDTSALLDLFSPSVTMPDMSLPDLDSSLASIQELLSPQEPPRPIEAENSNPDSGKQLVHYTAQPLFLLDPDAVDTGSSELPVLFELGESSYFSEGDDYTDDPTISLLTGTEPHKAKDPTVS
Kind of experiment: HSF1 potentiators in luciferase reporter cells, confirmation, cell-based, NIH3T3, luminescence, dose retest (AID 435004).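 Also: stress induced by proteasome inhibitor MG132 added 30 min after compound; luciferase reporter driven by HSF1 response element in NIH3T3 cells; actives raise luminescence as potentiators of the MG132 stress response.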 It counts as functional.

For a further experiment, the system named is H9c2. Kind of experiment: cells. Type of experiment: functional, cell-based. As to conditions: Rattus norvegicus, H9c2, Myocardium.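 Also: confirmatory concentration-response retest of ultra-high-throughput screening hits for modulation of myocardial damage; cell death induced by hydrogen peroxide oxidative stress; compound pretreatment for 60 min then peroxide exposure for 2 h; potency is for protecting the cells against peroxide damage rather than for killing them.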
The nature of experiment [10]: Shn3 3'UTR reporter inhibitors, dose response, cell-based, Clone20 osteoblasts, firefly luciferase, cherry-picked (AID 624132).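 Also: firefly luciferase luminescence from reporter carrying the Shn3 3'UTR in osteoblasts.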 Type of experiment: functional.
Experiment [11] can be described thus: HepG2 cell cytotoxicity, dose response, cytotoxicity control for Shn3 inhibitor project, CellTiter-Glo, cherry-picked (AID 624134). It counts as functional, cell-based. For orientation: ATP-based viability assays read luminescence as a measure of living cells.
The target of the next experiment is T5, Hexokinase-1 (Homo sapiens, UniProt P19367).
T5 sequence (P19367 whole entry): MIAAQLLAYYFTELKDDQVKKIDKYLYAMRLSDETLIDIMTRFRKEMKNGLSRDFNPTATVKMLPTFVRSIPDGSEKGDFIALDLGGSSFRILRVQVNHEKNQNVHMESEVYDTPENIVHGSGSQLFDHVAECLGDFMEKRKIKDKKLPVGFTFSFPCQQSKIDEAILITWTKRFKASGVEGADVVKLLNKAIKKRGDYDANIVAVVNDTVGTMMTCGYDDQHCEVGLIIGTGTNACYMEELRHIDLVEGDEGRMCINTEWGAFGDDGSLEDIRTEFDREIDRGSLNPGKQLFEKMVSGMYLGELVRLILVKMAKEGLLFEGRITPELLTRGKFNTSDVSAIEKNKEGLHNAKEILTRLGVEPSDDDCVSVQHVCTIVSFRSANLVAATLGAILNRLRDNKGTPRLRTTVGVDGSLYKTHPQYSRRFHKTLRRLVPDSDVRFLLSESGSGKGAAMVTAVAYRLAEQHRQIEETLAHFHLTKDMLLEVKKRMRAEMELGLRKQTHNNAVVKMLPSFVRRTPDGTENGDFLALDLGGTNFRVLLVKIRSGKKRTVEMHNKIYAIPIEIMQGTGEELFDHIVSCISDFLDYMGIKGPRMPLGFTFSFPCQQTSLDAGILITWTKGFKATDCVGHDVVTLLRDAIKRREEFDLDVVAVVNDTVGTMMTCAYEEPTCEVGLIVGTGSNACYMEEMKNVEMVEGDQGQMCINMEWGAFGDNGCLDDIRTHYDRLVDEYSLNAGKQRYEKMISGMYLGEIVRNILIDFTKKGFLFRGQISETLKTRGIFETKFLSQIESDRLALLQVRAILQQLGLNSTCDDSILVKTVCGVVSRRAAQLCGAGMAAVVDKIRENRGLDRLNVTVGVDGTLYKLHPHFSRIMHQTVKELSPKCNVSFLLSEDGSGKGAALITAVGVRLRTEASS
Kind of experiment: SAR analysis of small molecule inhibitors of hexokinase domain containing I (HKDC1) in the hexokinase 1 selectivity assay. [Related pubchem assays (depositor defined):AID493160, AID493190]. It counts as functional.

A further experiment addresses T6, Hexokinase HKDC1 (Homo sapiens, UniProt Q2TB90).
T6 sequence (Q2TB90 whole entry): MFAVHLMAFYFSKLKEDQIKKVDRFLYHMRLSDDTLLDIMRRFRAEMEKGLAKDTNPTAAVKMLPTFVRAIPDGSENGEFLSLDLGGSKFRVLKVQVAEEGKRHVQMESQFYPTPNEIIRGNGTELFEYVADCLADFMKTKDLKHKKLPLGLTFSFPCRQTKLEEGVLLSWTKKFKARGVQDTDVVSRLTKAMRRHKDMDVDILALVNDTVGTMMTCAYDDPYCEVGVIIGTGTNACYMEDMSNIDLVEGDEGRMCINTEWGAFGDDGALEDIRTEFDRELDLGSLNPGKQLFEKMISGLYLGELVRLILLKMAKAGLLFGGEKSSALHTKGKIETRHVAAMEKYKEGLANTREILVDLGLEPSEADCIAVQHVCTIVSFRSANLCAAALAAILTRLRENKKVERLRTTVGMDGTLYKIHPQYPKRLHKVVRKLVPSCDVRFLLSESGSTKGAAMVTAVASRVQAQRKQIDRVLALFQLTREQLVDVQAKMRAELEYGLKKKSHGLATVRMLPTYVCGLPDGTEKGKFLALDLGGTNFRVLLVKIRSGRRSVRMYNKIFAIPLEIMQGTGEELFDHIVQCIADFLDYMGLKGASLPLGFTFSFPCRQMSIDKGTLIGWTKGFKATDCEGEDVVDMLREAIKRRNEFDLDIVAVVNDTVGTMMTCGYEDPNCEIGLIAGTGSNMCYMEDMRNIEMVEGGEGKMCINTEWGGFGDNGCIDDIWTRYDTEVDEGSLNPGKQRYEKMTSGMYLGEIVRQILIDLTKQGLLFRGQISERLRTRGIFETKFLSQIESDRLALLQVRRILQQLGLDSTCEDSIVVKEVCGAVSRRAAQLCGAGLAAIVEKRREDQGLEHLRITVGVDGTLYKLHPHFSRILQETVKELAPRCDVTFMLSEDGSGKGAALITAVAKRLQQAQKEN
Put plainly: SAR analysis of small molecule inhibitors of hexokinase domain containing I (HKDC1). [Related pubchem assays (depositor defined):AID493160, AID493190]. It counts as functional.

Calls of active or inactive are those of the source. Rule as the data show it, for most assays here: actives have a measured EC50 and inactives only a lower limit.

Regarding `O=C(Cc1ccc(Cl)cc1)NNC(=S)NC(=O)c1cccs1`, the EC50 in experiment [1] was > 160 µM (inactive); in experiment [2], 1.43 µM (active); in experiment [3], > 180 µM (inactive); in experiment [4] it was 16.6 µM (active).

For the compound `O=C(CCS(=O)(=O)c1ccc(F)cc1)Nc1nc(-c2ccncc2)cs1`, the EC50 is 18.3 µM (inconclusive) in [1], 1.39 µM (active) in [2], > 180 µM (inactive) in experiment [3] and 16.5 µM (active) in [4].

For the compound `COc1ccc(NS(=O)(=O)c2ccc3ccccc3c2)c2ncccc12`, the EC50 in [1] was 60.9 µM (active); in [5] it was 1.03 µM (active); on Beta-galactosidase it was > 40 µM (inactive); on Streptokinase A it was > 150 µM (not active); in experiment [2], > 38 µM (not active); in experiment [6], 0.688 µM (active). For the same compound, the EC50 in [8] is 5.55 µM (active); in the experiment on Streptococcus, 4.63 µM (active); in experiment [9] it was 7.48 µM (active). Besides, the IC50 in experiment [7] is 23.1 µM (not active); in the experiment on H9c2, 11.5 µM (active). For the same compound, the AC50 in experiment [10] is 4.82 µM (active); in experiment [11], 69.5 µM (active).

`Cc1cc2nnc(SCC(=O)Nc3cccc(S(=O)(=O)N4CCCC4)c3)n2c2ccccc12`: the IC50 on Hexokinase-1 and on Hexokinase HKDC1 was > 80 µM (inactive) throughout.

Regarding `O=c1c2ccccc2nc(/C=C/c2ccccn2)n1Cc1ccccc1`, the IC50 at Hexokinase-1 and on Hexokinase HKDC1 was > 80 µM (inactive) each time.

Regarding `O=c1c2ccccc2nc(/C=C/c2ccccc2)n1Cc1ccccc1`, the IC50 on Hexokinase-1 and at Hexokinase HKDC1 was > 80 µM (inactive) in each case.

Usually EC50 stands for the concentration giving half of the maximal effect. In general, IC50 refers to the point on the concentration scale where inhibition reaches its midpoint. For orientation: AC50 means the midpoint of the concentration-response curve, whichever way the signal moves.
